Where two headings read alike, the source gives them in different places.
Assays:
[1] = Prodrug stability assay in bio-relevant media (FaSSIF with Pancreatin, GI tract stability); type: in vitro ADME; settings: HPLC peak area of prodrug at 5 h / 0 h, 0.5 mg/mL Pancreatin in FaSSIF, 37° C.
Protocol: Prodrug Stability Assay in Bio-Relevant Media
The following assay was employed to evaluate the stability of the prodrugs in simulated gastrointestinal tract conditions. Preparation of fasted state simulated intestinal fluid (FaSSIF) using Phares SIF Powder was carried out according to protocols from Phare Drug Delivery AG (Baselland, Switzerland). For sample preparation, 10 μL stock solutions (10 mM) of prodrug substance in DMSO was added to 990 μL of 0.5 mg/mL Pancreatin solution (Fisher CAS#8049-47-6) in FaSSIF. Two samples were prepared for each compound. If the sample was a clear solution, it was directly analyzed by HPLC. If the sample was not clear, the sample was […] at 37° C. and observed 5 h later. If the sample was clear, HPLC analysis was directly performed. If the sample was still not clear, the sample was diluted with 100% ACN and assayed by HPLC. All the samples were vortexed for 3 min and observed before injection. For the diluted samples, the area is multiplied by a dilution factor when the data is analyzed. The analysis was carried out with an Agilent 1100 series HPLC with autosampler. The column was a Poroshell 120 EC-C18, 4.6×50 mm, […]. The flow rate was 1.8 mL/min, and the injection volume was 5 or 10 μL. UV detection was in the range 210-400 nm. The mobile phase consisted of solvent A (water plus 10 mM tetrabutylammonium bromide) and solvent B (acetonitrile) with a gradient of: 90% solvent A at 0 min, changing to 95% solvent B over 6 min, maintaining for 1.5 min, then reverting to 90% solvent A over 1.6 min. The HPLC peak area of the prodrug at 5 h was divided by the HPLC peak area of the prodrug at 0 h, to generate the % claimed parent ratio, which is summarized in Table 2 for gastrointestinal (GI) Tract stability.

[2] = test system: HIV-1 (H9/IIIB strain); test: Viking assay: antiviral potency in a multiple round HIV-1 infection assay in MT4-GFP cells; type: cell-based; settings: MT4-GFP cells infected with HIV-1 H9/IIIB, inhibition of reproductive ratio R0
Protocol: Assessing Antiviral Potency in a Multiple Round HIV-1 Infection Assay (Viking Assay)
The antiviral activity of the tenofovir prodrugs of the Examples herein was assessed in an assay that measures the rate of replication of HIV in cell culture, termed the Viking assay (VIral KINetics in Green cells) and performed as follows. HIV-1 replication was monitored using MT4-gag-GFP clone D3 (hereafter designated MT4-GFP), which are MT-4 cells modified to harbor a GFP reporter gene, the expression of which is dependent on the HIV-1 expressed proteins tat and rev. Productive infection of an MT4-GFP cell with HIV-1 results in GFP expression approximately 24 h post-infection. MT4-GFP cells were maintained at 37° C./5% CO2/90% relative humidity in RPMI 1640 supplemented with 10% fetal bovine serum, 100 U/ml penicillin/streptomycin, and 400 μg/ml G418 to maintain the reporter gene. For infections, MT4-GFP cells were placed in the same medium lacking G418 and infected overnight with HIV-1 (H9/IIIB strain) virus at an approximate multiplicity of infection of 0.01 in the same incubation conditions. Cells were then washed and re-suspended in either RPMI 1640 supplemented with 10% or 50% normal human serum (NHS) at 1.6×10^5 cells/mL (10% NHS or 50% NHS, respectively). Compound plates were prepared by dispensing compounds dissolved in DMSO into wells of 384 well poly-D-lysine-coated plates (0.2 μl/well) using an ECHO acoustic dispenser. Each compound was tested in a 10-point serial 3-fold dilution (typical final concentrations: 8.4 μM-0.42 nM). Controls included no inhibitor (DMSO only) and a combination of three antiviral agents (efavirenz, indinavir, an in-house integrase strand transfer inhibitor at final concentrations of 4 μM each). Cells were added (50 μL/well) to compound plates and the infected cells were maintained at 37° C./5% CO2/90% relative humidity.
Infected cells were quantified at two time points, ˜48 h and ˜72 h post-infection, by counting the number of green cells in each well using an Acumen eX3 scanner. The increase in the number of green cells over ˜24 h period gives the reproductive ratio, R0, which is typically 5-15 and has been shown experimentally to be in logarithmic phase (data not shown). Inhibition of R0 is calculated for each well, and IC50s determined by non-linear 4-parameter curve fitting.

[3] = Human immunodeficiency virus 1, IIIB, 10% normal human serum, read-out: Viking, IC50 (10% NHS)
[4] = Human immunodeficiency virus 1, IIIB, 50% normal human serum, read-out: Viking, IC50 (50% NHS)

| GI Tract stability [1] | SMILES | IC50 [2, 3] | IC50 [2, 4] | other results |
| --- | --- | --- | --- | --- |
| 99.3% | CC(C)OC(=O)C(C)(C)NP(=O)(CO[C@H](C)Cn1cnc2c(N)ncnc21)ON=C1CCCC1 (mixture of isomers) [Example 27, isopropyl 2-(((R)-((((R)-1-(6-amino-9H-purin-9-yl)propan-2-yl)oxy)methyl)((cyclopentylideneamino)oxy)phosphoryl)amino)-2-methylpropanoate; and isopropyl 2-(((S)-((((R)-1-(6-amino-9H-purin-9-yl)propan-2-yl)oxy)methyl)((cyclopentylideneamino)oxy)phosphoryl)amino)-2-methylpropanoate] |  |  |  |
| 5.6% | CC(C)CC(CC(C)C)=NOP(=O)(CO[C@H](C)Cn1cnc2c(N)ncnc21)NC(C)(C)C(=O)OC1CCC1 (mixture of isomers) [Example 32, cyclobutyl 2-(((R)-((((R)-1-(6-amino-9H-purin-9-yl)propan-2-yl)oxy)methyl)(((2,6-dimethylheptan-4-ylidene)amino)oxy)phosphoryl)amino)-2-methylpropanoate; and cyclobutyl 2-(((S)-((((R)-1-(6-amino-9H-purin-9-yl)propan-2-yl)oxy)methyl)(((2,6-dimethylheptan-4-ylidene)amino)oxy)phosphoryl)amino)-2-methylpropanoate] |  |  |  |
|  | CC(C)=NOP(=O)(CO[C@H](C)Cn1cnc2c(N)ncnc21)N[C@@H](C)C(=O)OCc1ccccc1 (stereo partly drawn) [Example 5, benzyl (((R)-(((R)-1-(6-amino-9H-purin-9-yl)propan-2-yl)oxy)methyl)((propan-2-ylideneamino)oxy)phosphoryl)-L-alaninate; and benzyl (((S)-(((R)-1-(6-amino-9H-purin-9-yl)propan-2-yl)oxy)methyl)((propan-2-ylideneamino)oxy)phosphoryl)-L-alaninate] | 21.3 nM | 115 nM | IC50 ([2]; 10% normal human serum, read-out: Viking, IC50 (10% NHS)): 15.2 nM; IC50 ([2]; 50% normal human serum, read-out: Viking, IC50 (50% NHS)): 67 nM |
|  | CC(C)OC(=O)[C@H](C)NP(=O)(CO[C@H](C)Cn1cnc2c(N)ncnc21)ON=C(C1CCCC1)C1CCCC1 (stereo partly drawn) [Example 6, isopropyl (((((R)-1-(6-amino-9H-purin-9-yl)propan-2-yl)oxy)methyl)(((dicyclopentylmethyl-ene)amino)oxy)phosphoryl)-L-alaninate] | 24.3 nM | 51.3 nM |  |
|  | CCC(CC)=NOP(=O)(CO[C@H](C)Cn1cnc2c(N)ncnc21)N[C@@H](C)C(=O)OC(C)C (stereo partly drawn) [Example 7, isopropyl (((((R)-1-(6-amino-9H-purin-9-yl)propan-2-yl)oxy)methyl)((pentan-3-ylideneamino)oxy)phosphoryl)-L-alaninate] | 28.2 nM | 84.7 nM |  |
|  | CC(C)OC(=O)[C@H](C)NP(=O)(CO[C@H](C)Cn1cnc2c(N)ncnc21)ON=C1CCCCC1 (stereo partly drawn) [Example 8, isopropyl (((((R)-1-(6-amino-9H-purin-9-yl)propan-2-yl)oxy)methyl)((cyclohexylideneamino)oxy)phosphoryl)-L-alaninate] | 67.7 nM | 92.1 nM |  |
|  | CC(C)OC(=O)[C@H](C)NP(=O)(CO[C@H](C)Cn1cnc2c(N)ncnc21)ON=C1CCOCC1 (stereo partly drawn) [Example 9, isopropyl (((((R)-1-(6-amino-9H-purin-9-yl)propan-2-yl)oxy)methyl)(((tetrahydro-4H-pyran-4-ylidene)amino)oxy)phosphoryl)-L-alaninate] | 165 nM | 360 nM |  |
|  | CC(C)OC(=O)[C@H](C)NP(=O)(CO[C@H](C)Cn1cnc2c(N)ncnc21)ON=C1CCN(Cc2ccccc2)CC1 (stereo partly drawn) [Example 11, isopropyl (((((R)-1-(6-amino-9H-purin-9-yl)propan-2-yl)oxy)methyl)(((1-benzylpiperidin-4-ylidene)amino)oxy)phosphoryl)-L-alaninate] | 14.8 nM | 51.7 nM |  |
| 17.6% | CC(C)CC(CC(C)C)=NOP(=O)(CO[C@H](C)Cn1cnc2c(N)ncnc21)N[C@@H](C)C(=O)OC(C)C (stereo partly drawn) [Example 12, isopropyl (((R)-(((R)-1-(6-amino-9H-purin-9-yl)propan-2-yl)oxy)methyl)(((2,6-dimethylheptan-4-ylidene)amino)oxy)phosphoryl)-L-alaninate; and isopropyl (((S)-(((R)-1-(6-amino-9H-purin-9-yl)propan-2-yl)oxy)methyl)(((2,6-dimethylheptan-4-ylidene)amino)oxy)phosphoryl)-L-alaninate] |  |  |  |
| 95.7% | CC(C)OC(=O)[C@H](C)NP(=O)(CO[C@H](C)Cn1cnc2c(N)ncnc21)ON=C1CCCC1 (stereo partly drawn) [Example 13, isopropyl (((R)-(((R)-1-(6-amino-9H-purin-9-yl)propan-2-yl)oxy)methyl)((cyclopentylidene-amino)oxy)phosphoryl)-L-alaninate; and isopropyl (((S)-(((R)-1-(6-amino-9H-purin-9-yl)propan-2-yl)oxy)methyl)((cyclopentylidene-amino)oxy)phosphoryl)-L-alaninate] |  |  |  |
|  | CC(C)OC(=O)[C@H](C)NP(=O)(CO[C@H](C)Cn1cnc2c(N)ncnc21)ON=C(c1ccccc1)c1ccccc1 (stereo partly drawn) [Example 14, isopropyl (((((R)-1-(6-amino-9H-purin-9-yl)propan-2-yl)oxy)methyl)(((diphenylmethylene)amino)oxy)phosphoryl)-L-alaninate] | 18.6 nM | 169 nM |  |
| 33.4% | C/C(=N\OP(=O)(CO[C@H](C)Cn1cnc2c(N)ncnc21)N[C@@H](C)C(=O)OC(C)C)C1CCCCC1 (stereo partly drawn) [Example 15, isopropyl (((R)-(((R)-1-(6-amino-9H-purin-9-yl)propan-2-yl)oxy)methyl)((((E)-1-cyclohexylethylidene)amino)oxy)phosphoryl)-L-alaninate; and isopropyl (((S)-(((R)-1-(6-amino-9H-purin-9-yl)propan-2-yl)oxy)methyl)((((E)-1-cyclohexylethylidene)amino)oxy)phosphoryl)-L-alaninate] |  |  |  |
|  | C/C(=N\OP(=O)(CO[C@H](C)Cn1cnc2c(N)ncnc21)N[C@@H](C)C(=O)OC(C)C)c1ccncc1 (stereo partly drawn) [Example 16, isopropyl (((R)-(((R)-1-(6-amino-9H-purin-9-yl)propan-2-yl)oxy)methyl)((((E)-1-(pyridin-4-yl)ethylidene)amino)oxy)phosphoryl)-L-alaninate and isopropyl; and (((S)-(((R)-1-(6-amino-9H-purin-9-yl)propan-2-yl)oxy)methyl)((((E)-1-(pyridin-4-yl)ethylidene)amino)oxy)phosphoryl)-L-alaninate] | 780 nM | 1140 nM |  |
| 79.5% | C/C(=N\OP(=O)(CO[C@H](C)Cn1cnc2c(N)ncnc21)N[C@@H](C)C(=O)OC(C)C)C1CCCC1 (stereo partly drawn) [Example 21, isopropyl (((R)-(((R)-1-(6-amino-9H-purin-9-yl)propan-2-yl)oxy)methyl)((((E)-1-cyclopentylethylidene)amino)oxy)phosphoryl)-L-alaninate; and isopropyl (((S)-(((R)-1-(6-amino-9H-purin-9-yl)propan-2-yl)oxy)methyl)((((E)-1-cyclopentylethylidene)amino)oxy)phosphonyl)-L-alaninate] |  |  |  |
